Results from article PMC7534336, “New classes of potent heparanase inhibitors from ligand-based virtual screening” (Journal of Enzyme Inhibition and Medicinal Chemistry, 2020).
Like-named read-outs stand apart in the source and are kept apart here.

Target: human GS3 heparanase (Homo sapiens, UniProt Q9Y251)
Test: fondaparinux assay of heparanase enzymatic activity (WST-1 colorimetric)
Type: biochemical
Details: for % inhib @25 M ± SD: fixed concentration 25 µM (25 M [sic]); for % inhib @2.5 M ± SD: fixed concentration 2.5 µM (2.5 M [sic])
Source text: To determine the activity of the heparanase inhibitors, a homogeneous assay based on the cleavage of the synthetic heparin oligosaccharide fondaparinux (Arixtra; Aspen) was used. The assay measures colorimetrically the appearance of the disaccharide product of heparanase-catalysed fondaparinux cleavage using the tetrazolium salt WST-1. The assay was essentially performed as described[39] with minor modifications. Briefly, Nunc 96-well (Thermo Fisher Scientific) plates were pre-treated with a solution of 4% BSA (bovine serum albumin, Sigma-Aldrich) in phosphate-buffered saline containing 0.05% Tween 20 (PBST), for 2 h at 37 °C, and then washed three times with PBST. […] The IC50 value for each compound was calculated by GraphPad software. Finally, the measurements were corrected by subtracting both the reagent background and the inner absorbance value of test compound.
Supporting Table S1 reports the structures of the fifty-five compounds purchased and tested, with information, for each compound, on the database from which it was retrieved, the reference inhibitor used to retrieve it and the similarity value with the reference inhibitor.

[1] = fondaparinux assay on human GS3 heparanase, mean of triplicates, read-out: IC50 (µM) ± SD, heparanase inhibitory activity
[2] = Table S1, fondaparinux assay on GS3 heparanase, read-out: IC50 (M) ± SD
[3] = fondaparinux assay on human GS3 heparanase, mean of triplicates

human GS3 heparanase, sequence (Q9Y251 other isoform, or with tags, fused parts or gaps): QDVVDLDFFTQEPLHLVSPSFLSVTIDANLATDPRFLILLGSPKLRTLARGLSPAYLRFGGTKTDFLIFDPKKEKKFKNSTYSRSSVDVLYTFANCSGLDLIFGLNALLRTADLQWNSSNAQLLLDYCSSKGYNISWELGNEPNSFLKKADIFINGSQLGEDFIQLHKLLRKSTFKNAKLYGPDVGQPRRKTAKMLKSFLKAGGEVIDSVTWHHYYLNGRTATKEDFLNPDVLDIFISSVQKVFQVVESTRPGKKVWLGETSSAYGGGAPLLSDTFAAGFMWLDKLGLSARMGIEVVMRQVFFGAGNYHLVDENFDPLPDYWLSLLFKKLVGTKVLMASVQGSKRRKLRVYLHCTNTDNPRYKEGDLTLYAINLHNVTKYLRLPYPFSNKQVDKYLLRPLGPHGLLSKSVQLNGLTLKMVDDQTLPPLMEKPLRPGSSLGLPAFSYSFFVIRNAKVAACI

% inhib @25 M ± SD (Table S1)	% inhib @2.5 M ± SD (Table S1)	IC50 [1] [µM]	Compound	other results
76 ± 2%	54 ± 6%	–	O=C(Nc1nc(-c2ccc3ccccc3c2)cs1)c1ccc(Oc2ccc(C(=O)Nc3nc(-c4ccc5ccccc5c4)cs3)cc2)cc1 [Compound 41]	–
67 ± 4%	44 ± 1%	–	O=C(Nc1nc(-c2ccc(F)cc2)cs1)c1ccc(Oc2ccc(C(=O)Nc3nc(-c4ccc(F)cc4)cs3)cc2)cc1 [Compound 43]	–
60 ± 5%	62 ± 2%	–	O=C(Nc1ccc(Oc2ccc(NC(=O)c3ccc4c(c3)C(=O)N(c3nccs3)C4=O)cc2)cc1)c1ccc2c(c1)C(=O)N(c1nccs1)C2=O [Compound 44]	–
67 ± 4%	41 ± 3%	–	O=C(Nc1c[nH]c(=O)[nH]c1=O)c1ccc2c(c1)C(=O)N(c1ccc(Oc3ccc(N4C(=O)c5ccc(C(=O)Nc6c[nH]c(=O)[nH]c6=O)cc5C4=O)cc3)cc1)C2=O [Compound 45]	–
66 ± 5%	30 ± 3%	–	O=C(Nc1ccc(Sc2ccc(Oc3ccc(Sc4ccc(NC(=O)c5cccc(F)c5)cc4)cc3)cc2)cc1)c1cccc(F)c1 [Compound 47]	–
–	–	0.91 ± 0.1	CC(C)(c1ccc(Oc2ccc3c(c2)C(=O)N(c2cccc(C(=O)O)c2)C3=O)cc1)c1ccc(Oc2ccc3c(c2)C(=O)N(c2cccc(C(=O)O)c2)C3=O)cc1 [Compound 48]	IC50 (µM) ± SD, heparanase inhibitory activity [3]: significant inhibitory potencies
–	–	2.35 ± 0.23	CC(C)(c1ccc(Oc2ccc3c(c2)C(=O)N(c2ccc(C(=O)O)cc2)C3=O)cc1)c1ccc(Oc2ccc3c(c2)C(=O)N(c2ccc(C(=O)O)cc2)C3=O)cc1 [Compound 49]	IC50 (µM) ± SD, heparanase inhibitory activity [3]: significant inhibitory potencies
–	–	2.01 ± 0.13	O=C(O)c1cc(NC(=O)c2ccc(Oc3ccc(C(=O)Nc4cc(C(=O)O)cc(C(=O)O)c4)cc3)cc2)cc(C(=O)O)c1 [Compound 50]	IC50 (µM) ± SD, heparanase inhibitory activity [3]: good inhibitory potencies
77 ± 4%	42 ± 6%	–	O=C(Nc1ccc(O)cc1C(=O)O)c1ccc(Oc2ccc(C(=O)Nc3ccc(O)cc3C(=O)O)cc2)cc1 [Compound 51]	–

More lines, now with the values behind:

Compound	% inhib @25 M ± SD (Table S1)	% inhib @2.5 M ± SD (Table S1)	IC50 [1] [µM]	other results
O=C(Nc1cccc(C(=O)Nc2ccc(S(=O)(=O)O)c3cc(S(=O)(=O)O)cc(S(=O)(=O)O)c23)c1)Nc1cccc(C(=O)Nc2ccc(S(=O)(=O)O)c3cc(S(=O)(=O)O)cc(S(=O)(=O)O)c23)c1 [Compound 9]	Not active	–	–	–
O=C(Nc1cccc(C(=O)Nc2cc(C(=O)Nc3ccc(S(=O)(=O)O)c4cc(S(=O)(=O)O)cc(S(=O)(=O)O)c34)ccc2F)c1)Nc1cccc(C(=O)Nc2cc(C(=O)Nc3ccc(S(=O)(=O)O)c4cc(S(=O)(=O)O)cc(S(=O)(=O)O)c34)ccc2F)c1 [Compound 10]	100 ± 1%	39 ± 3%	–	–
O=C(Nc1ccc2c(O)c(N=Nc3ccc(N=Nc4ccc(S(=O)(=O)O)cc4)cc3S(=O)(=O)O)c(S(=O)(=O)O)cc2c1)Nc1ccc2c(O)c(N=Nc3ccc(N=Nc4ccc(S(=O)(=O)O)cc4)cc3S(=O)(=O)O)c(S(=O)(=O)O)cc2c1 [Compound 15]	–	–	0.93 ± 0.07	–
COc1cc(N=Nc2cccc(S(=O)(=O)O)c2)ccc1NC(=O)Nc1ccc(N=Nc2ccc(O)c(C(=O)O)c2)cc1 [Compound 17]	95 ± 1%	14 ± 2%	–	–
O=C(Nc1ccc2c(O)c(N=Nc3ccccc3)c(S(=O)(=O)O)cc2c1)Nc1ccc2c(O)c(N=Nc3ccccc3)c(S(=O)(=O)O)cc2c1 [Compound 18]	11 ± 3%	12 ± 3%	–	–
Nc1ccc2cc(S(=O)(=O)O)cc(O)c2c1N=Nc1ccc(NC(=O)Nc2ccc(N=Nc3c(N)ccc4cc(S(=O)(=O)O)cc(O)c34)c(S(=O)(=O)O)c2)cc1S(=O)(=O)O [Compound 20]	–	–	1.76 ± 0.23	–
O=C(Nc1ccc(Br)cc1C(=O)O)c1ccc(Oc2ccc(C(=O)Nc3ccc(Br)cc3C(=O)O)cc2)cc1 [Compound 21]	–	–	2.66 ± 0.32	–
O=C(Nc1ccccc1Oc1ccc(C(=O)O)c(C(=O)O)c1)c1ccc(Oc2ccc(C(=O)Nc3ccccc3Oc3ccc(C(=O)O)c(C(=O)O)c3)cc2)cc1 [Compound 22]	60 ±1%	21 ± 1%	–	–
O=C(Nc1ccccc1C(=O)O)c1ccc2c(c1)C(=O)N(c1ccc(Oc3ccc(N4C(=O)c5ccc(C(=O)Nc6ccccc6C(=O)O)cc5C4=O)cc3)cc1)C2=O [Compound 23]	96 ± 3%	–	–	–
O=C(Nc1ccccc1C(=O)O)c1ccc2c(c1)C(=O)N(c1ccc(S(=O)(=O)c3ccc(N4C(=O)c5ccc(C(=O)Nc6ccccc6C(=O)O)cc5C4=O)cc3)cc1)C2=O [Compound 24]	–	–	1.1 ± 0.13	–
O=C(O)c1ccc2c(c1)C(=O)N(NC(=O)c1ccc(Oc3ccc(C(=O)NN4C(=O)c5ccc(C(=O)O)cc5C4=O)cc3)cc1)C2=O [Compound 25]	Not active	–	–	–
O=C(O)c1cc(C(=O)O)cc(N2C(=O)c3ccc(C(=O)c4ccc5c(c4)C(=O)N(c4cc(C(=O)O)cc(C(=O)O)c4)C5=O)cc3C2=O)c1 [Compound 26]	99 ± 6%	35 ± 1%	–	–
O=C(O)c1ccc(Oc2ccc3c(c2)C(=O)N(c2ccc(S(=O)(=O)c4ccc(N5C(=O)c6ccc(Oc7ccc(C(=O)O)cc7)cc6C5=O)cc4)cc2)C3=O)cc1 [Compound 27]	70 ± 6%	Not active	–	–
Cc1c(NS(=O)(=O)c2cc(C(=O)Nc3ccc(-c4nc5ccccc5[nH]4)cc3)ccc2Cl)c(=O)n(-c2ccccc2)n1C [Compound 28]	59 ± 5%	14 ± 6%	–	–
COc1cc(C(=O)Nc2ccc(-c3nc4cc(NC(=O)c5cc(OC)c(OC)c(OC)c5)ccc4[nH]3)cc2)cc(OC)c1OC [Compound 30]	1 ± 1%	11 ± 4%	–	–
O=C(CSc1nc2ccccc2[nH]1)Nc1ccc(-c2nc3cc(NC(=O)CSc4nc5ccccc5[nH]4)ccc3o2)cc1 [Compound 33]	58 ± 1%	36 ± 5%	–	–
O=C(O)c1ccc(Oc2ccc3c(c2)C(=O)N(c2ccc(Oc4ccc(N5C(=O)c6ccc(Oc7ccc(C(=O)O)cc7)cc6C5=O)cc4)cc2)C3=O)cc1 [Compound 34]	–	–	3.15 ± 0.28	–
O=C(O)/C=C/C(=O)Nc1ccc(Sc2ccc(Oc3ccc(Sc4ccc(NC(=O)/C=C/C(=O)O)cc4)cc3)cc2)cc1 [Compound 35]	–	–	0.52 ± 0.02	–
O=C(O)c1ccc(Oc2cccc(N3C(=O)c4ccc(Oc5ccc6c(c5)C(=O)N(c5cccc(Oc7ccc(C(=O)O)c(C(=O)O)c7)c5)C6=O)cc4C3=O)c2)cc1C(=O)O [Compound 36]	–	–	0.63 ± 0.01	–
O=C(O)COc1ccc(N2C(=O)c3ccc(Oc4ccc5c(c4)C(=O)N(c4ccc(OCC(=O)O)cc4)C5=O)cc3C2=O)cc1 [Compound 37]	–	–	–	IC50 [2]: > 5 µM
O=C(Nc1cccc(-c2nc3ccccc3s2)c1)c1ccc(Oc2ccc(C(=O)Nc3cccc(-c4nc5ccccc5s4)c3)cc2)cc1 [Compound 38]	–	–	–	IC50 [2]: 5.75 ± 0.05 µM
O=C(Nc1ccc(-c2nc3ccccc3o2)cc1)c1ccc(Oc2ccc(C(=O)Nc3ccc(-c4nc5ccccc5o4)cc3)cc2)cc1 [Compound 39]	63 ± 16%	60 ± 21%	–	–
O=C(Nc1cccc(C(=O)c2ccccc2)c1)c1ccc(Oc2ccc(C(=O)Nc3cccc(C(=O)c4ccccc4)c3)cc2)cc1 [Compound 40]	–	–	–	IC50 [2]: > 5 µM
O=C(Nc1cccc(Oc2ccc(S(=O)(=O)c3ccc(Oc4cccc(NC(=O)c5ccc(F)cc5)c4)cc3)cc2)c1)c1ccc(F)cc1 [Compound 46]	–	–	–	IC50 [2]: > 5 µM
